ChEMBL document CHEMBL1201862, “PubChem BioAssay data set” (2004)
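A five-concentration, 48-hour dose response in 96-well plates underlies each endpoint, interpolated linearly between surrounding concentrations. GI50: concentration for 50% inhibition of growth.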 Active and inactive are the calls of the source. Cut-off read from the data, not from the text of the source: active = GI50 up to about 1.1 µM and inactive = higher.

What was measured:
Assay in all cases: DTP human tumour cell line panel, 48 h
SK-MEL-28 = system: SK-MEL-28
NCI-H460 = system: NCI-H460
CAKI-1 = system: CAKI-1
COLO 205 = system: COLO 205
SN12C = system: SN12C
SNB-19 = system: SNB-19
UACC-62 = system: UACC-62
UO-31 = system: UO-31
NCI-H522 = system: NCI-H522
SR = system: SR
SK-MEL-5 = system: SK-MEL-5
786-0 = system: 786-0
LOX IMVI = system: LOX IMVI
HOP-92 = system: HOP-92
SF-539 = system: SF-539
ACHN = system: ACHN
HOP-62 = system: HOP-62
KM12 = system: KM12
BT-549 = system: BT-549

Measured: GI50

O=C(Cc1ccc(Cl)c(Cl)c1)N(CCc1ccc(Cl)c(Cl)c1)CCN1CCCC1
inactive: SK-MEL-28 1.43 µM | NCI-H460 1.85 µM | CAKI-1 1.67 µM | COLO 205 1.68 µM | SN12C 1.73 µM | SNB-19 2.15 µM | UACC-62 1.78 µM | UO-31 1.85 µM | NCI-H522 1.77 µM | SR 1.39 µM | SK-MEL-5 1.78 µM | 786-0 1.61 µM | LOX IMVI 1.73 µM | HOP-92 1.88 µM | SF-539 1.75 µM | ACHN 1.71 µM | HOP-62 1.79 µM | KM12 1.79 µM | BT-549 2.63 µM

O=C(O)CNC(=O)c1c2ccccc2nc2ccccc12
inactive: SK-MEL-28 > 100 µM | NCI-H460 > 100 µM | CAKI-1 > 100 µM | COLO 205 > 100 µM | SN12C > 100 µM | SNB-19 > 100 µM | UACC-62 > 100 µM | UO-31 > 100 µM | NCI-H522 > 100 µM | SR > 100 µM | SK-MEL-5 > 100 µM | 786-0 > 100 µM | LOX IMVI > 100 µM | HOP-92 > 100 µM | SF-539 > 100 µM | ACHN > 100 µM | HOP-62 > 100 µM | KM12 > 100 µM | BT-549 20.8 µM

Nc1c(O)c(C(=O)O)cc2ccccc12
inactive: SK-MEL-28 37.2 µM | NCI-H460 39.6 µM | CAKI-1 22.6 µM | COLO 205 26.1 µM | SN12C 38.4 µM | SNB-19 > 100 µM | UACC-62 17 µM | UO-31 47.3 µM | NCI-H522 17.7 µM | SR 39.4 µM | SK-MEL-5 14.7 µM | 786-0 19.6 µM | LOX IMVI 10.6 µM | HOP-92 35 µM | SF-539 40.6 µM | ACHN 25.4 µM | HOP-62 > 100 µM | KM12 40.2 µM | BT-549 21.3 µM

CCC1c2[nH]c3ccccc3c2C[C@H]2C(=O)NC(CCC(=O)OC(C)(C)C)C(=O)N12 (stereo partly specified)
inactive: SK-MEL-28 73.5 µM | CAKI-1 > 100 µM | COLO 205 32.4 µM | SN12C 39.4 µM | SNB-19 73.5 µM | UACC-62 66.5 µM | UO-31 46.9 µM | NCI-H522 29.6 µM | SR 41.7 µM | SK-MEL-5 39.4 µM | 786-0 56.6 µM | LOX IMVI 51.4 µM | HOP-92 30.6 µM | ACHN 47.4 µM | HOP-62 78.5 µM | KM12 35.1 µM | BT-549 53.3 µM

NCCNCC1CCNCC1
inactive: SK-MEL-28 > 100 µM | NCI-H460 > 100 µM | CAKI-1 > 100 µM | COLO 205 > 100 µM | SN12C > 100 µM | SNB-19 > 100 µM | UACC-62 > 100 µM | UO-31 > 100 µM | NCI-H522 > 100 µM | SR > 100 µM | SK-MEL-5 > 100 µM | 786-0 > 100 µM | LOX IMVI > 100 µM | HOP-92 > 100 µM | SF-539 > 100 µM | ACHN > 100 µM | HOP-62 > 100 µM | KM12 > 100 µM | BT-549 > 100 µM

C=C(C)C12CC3CC/C(=N/O)C(C1)C3(N1CCOCC1)C/C2=N/O (stereo unspecified)
inactive: SK-MEL-28 > 100 µM | NCI-H460 > 100 µM | CAKI-1 > 100 µM | COLO 205 > 100 µM | SN12C > 100 µM | SNB-19 > 100 µM | UACC-62 > 100 µM | UO-31 > 100 µM | NCI-H522 > 100 µM | SR > 100 µM | SK-MEL-5 > 100 µM | 786-0 > 100 µM | LOX IMVI > 100 µM | HOP-92 > 100 µM | SF-539 > 100 µM | ACHN > 100 µM | HOP-62 > 100 µM | KM12 > 100 µM | BT-549 > 100 µM

CC(C)C[C@H]1[C@@H](OCc2ccccc2)COS(=O)(=O)N1[C@H](C)c1ccccc1
inactive: SK-MEL-28 > 100 µM | NCI-H460 11.7 µM | CAKI-1 > 100 µM | COLO 205 > 72.6 µM | SN12C 75.3 µM | SNB-19 > 46 µM | UACC-62 > 100 µM | UO-31 9.95 µM | NCI-H522 7.83 µM | SR 3.24 µM | SK-MEL-5 5.55 µM | 786-0 23.4 µM | LOX IMVI 13.4 µM | HOP-92 > 100 µM | SF-539 > 100 µM | ACHN 48 µM | HOP-62 > 84.1 µM | KM12 47.1 µM | BT-549 > 58.2 µM
